# Source: ChEMBL document CHEMBL1201862, “PubChem BioAssay data set” (2004)
# The source made the active and inactive calls.
# Tests used:
# [1] = target: Cytochrome P450 2C19 (Homo sapiens, UniProt P33261); assay: Cytochrome panel assay with activity outcomes. Panel member name: p450-cyp2c19 Compounds with AC50 equal or less than 10 uM are considered active; format: functional
# [2] = target: Cytochrome P450 2C9 (Homo sapiens, UniProt P11712)
# [3] = tested on: Streptococcus sp. 'group A'; assay: growth inhibition of control SK(-) GAS strain, dose response, counter-screen for streptokinase expression inhibitor project, luminescence, kanamycin, BacTiterGlo, confirmation (AID 1900); format: functional, organism-based
# [4] = tested on: Streptococcus; assay: Group A Streptococcus viability loss, dose response, counter-screen for streptokinase expression inhibitor project, luminescence, BacTiterGlo (AID 1915); format: functional, organism-based;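 further: potency for reduction of bacterial viability or growth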
# [5] = Luminescence Cell-Based Dose Retest to Confirm Inhibitors of Cancer Stem Cells. [Related pubchem assays (depositor defined):AID2717, AID2721]; format: functional; details: Homo sapiens
# [6] = inhibitors of intracellular T. cruzi replication, confirmation, NIH3T3 host cells, beta-gal luminescence (AID 2044); format: functional, cell-based;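 further: intracellular parasites grown in NIH/3T3 mouse fibroblasts as host cells; luminescent beta-galactosidase reporter signal from transgenic T. cruzi replicating inside host cells; inhibitors lower the luminescence signal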
# [7] = cytotoxicity toward NIH3T3 fibroblasts, dose response, counter-screen, cell-based, ATP luminescence, mouse fibroblasts (AID 2010); format: functional;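 further: cells exposed to compound for about 90 hours before reading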
# [8] = target: Cytochrome P450 2D6 (Homo sapiens, UniProt P10635);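 further: CYP2D6 member of a cytochrome P450 panel assay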
# [9] = target: T1, Heat shock factor protein 1 (Mus musculus, UniProt P38532); assay: inhibition of MG132-induced HSE-luciferase signal, confirmation, cell-based, NIH3T3, luminescence, dose retest (AID 2382); format: functional;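 further: NIH3T3 fibroblasts with HSF1-driven luciferase reporter stressed by proteasome inhibitor MG132; luminescence from HSF1-driven luciferase expression after 8 hours of MG132 stress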
# T1 sequence (P38532 whole entry): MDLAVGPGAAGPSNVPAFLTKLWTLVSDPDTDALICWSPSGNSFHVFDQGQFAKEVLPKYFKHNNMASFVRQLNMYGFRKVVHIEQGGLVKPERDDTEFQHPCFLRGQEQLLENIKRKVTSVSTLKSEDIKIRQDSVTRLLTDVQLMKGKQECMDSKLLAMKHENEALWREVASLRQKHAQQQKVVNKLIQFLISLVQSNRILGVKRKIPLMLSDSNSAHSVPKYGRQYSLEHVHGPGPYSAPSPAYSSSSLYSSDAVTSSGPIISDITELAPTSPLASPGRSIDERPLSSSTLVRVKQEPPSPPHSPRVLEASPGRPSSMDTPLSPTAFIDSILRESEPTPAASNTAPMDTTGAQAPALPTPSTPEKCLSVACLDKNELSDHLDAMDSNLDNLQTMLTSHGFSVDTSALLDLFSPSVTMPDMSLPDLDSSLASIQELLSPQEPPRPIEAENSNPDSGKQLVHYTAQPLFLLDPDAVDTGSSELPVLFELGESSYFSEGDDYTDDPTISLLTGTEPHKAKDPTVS
# Sequence of Cytochrome P450 2D6 (P10635 whole entry): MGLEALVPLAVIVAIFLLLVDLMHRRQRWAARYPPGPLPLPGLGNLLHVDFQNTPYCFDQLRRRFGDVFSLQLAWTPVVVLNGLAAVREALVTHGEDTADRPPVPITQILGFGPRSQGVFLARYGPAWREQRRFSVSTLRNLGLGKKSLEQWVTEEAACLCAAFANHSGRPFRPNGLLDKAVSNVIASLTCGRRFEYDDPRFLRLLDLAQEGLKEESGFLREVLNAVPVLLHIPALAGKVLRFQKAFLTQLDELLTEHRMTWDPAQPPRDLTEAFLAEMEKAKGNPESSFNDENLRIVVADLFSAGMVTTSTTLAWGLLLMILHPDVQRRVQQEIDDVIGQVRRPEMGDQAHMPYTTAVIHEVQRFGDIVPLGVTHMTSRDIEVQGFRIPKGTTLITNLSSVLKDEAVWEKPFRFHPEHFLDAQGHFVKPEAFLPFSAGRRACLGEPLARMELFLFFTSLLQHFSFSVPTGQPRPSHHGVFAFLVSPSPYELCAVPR
# Sequence of Cytochrome P450 2C19 (P33261 whole entry): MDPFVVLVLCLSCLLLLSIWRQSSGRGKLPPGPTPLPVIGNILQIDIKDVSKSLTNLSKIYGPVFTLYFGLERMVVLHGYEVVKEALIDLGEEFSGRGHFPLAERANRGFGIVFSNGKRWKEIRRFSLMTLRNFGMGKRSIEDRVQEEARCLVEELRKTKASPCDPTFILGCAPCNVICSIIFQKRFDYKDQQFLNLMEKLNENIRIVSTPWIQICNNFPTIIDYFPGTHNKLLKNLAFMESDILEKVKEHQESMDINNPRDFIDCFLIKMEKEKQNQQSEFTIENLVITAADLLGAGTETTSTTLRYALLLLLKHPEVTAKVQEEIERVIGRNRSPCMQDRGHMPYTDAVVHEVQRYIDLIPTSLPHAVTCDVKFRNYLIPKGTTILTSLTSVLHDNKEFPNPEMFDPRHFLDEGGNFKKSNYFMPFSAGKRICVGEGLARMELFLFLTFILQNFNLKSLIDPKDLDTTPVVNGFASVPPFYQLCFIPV
# Sequence of Cytochrome P450 2C9 (P11712 whole entry): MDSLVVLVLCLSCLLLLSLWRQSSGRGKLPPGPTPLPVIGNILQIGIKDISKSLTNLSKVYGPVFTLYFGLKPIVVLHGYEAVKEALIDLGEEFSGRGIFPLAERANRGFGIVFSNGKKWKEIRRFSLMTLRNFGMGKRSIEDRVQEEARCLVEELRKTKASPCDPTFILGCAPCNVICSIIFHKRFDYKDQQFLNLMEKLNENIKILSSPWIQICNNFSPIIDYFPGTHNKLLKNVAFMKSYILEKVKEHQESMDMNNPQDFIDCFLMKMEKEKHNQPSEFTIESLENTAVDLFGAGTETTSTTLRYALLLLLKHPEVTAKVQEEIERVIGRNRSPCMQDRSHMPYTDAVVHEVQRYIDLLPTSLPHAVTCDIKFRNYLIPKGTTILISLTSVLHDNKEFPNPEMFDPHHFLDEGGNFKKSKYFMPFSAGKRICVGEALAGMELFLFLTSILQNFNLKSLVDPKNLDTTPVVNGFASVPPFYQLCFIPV
compound,measurement,setting,value
Cc1cc(N)c2ccccc2[n+]1CCCCCCCCCCCCCC[n+]1c(C)cc(N)c2ccccc21,AC50,[1]; read-out: AC50,31.6 µM (inconclusive)
same,AC50,[2],39.8 µM (inconclusive)
CCOc1ccc(-n2cc(-c3ccccc3)c3c(S)ncnc32)cc1,EC50,[3],6.95 µM (active)
same,EC50,[4],14.9 µM (active)
O=c1c2ccccc2nc(/C=C/c2ccccc2F)n1-c1ccccc1O,AC50,[5],2.4 µM (active)
CCOC(=O)C(C(=O)NCc1ccc(C)cc1)c1ncc(C(F)(F)F)cc1Cl (centres undefined),AC50,[1]; read-out: AC50,11.2 µM (inconclusive)
COc1cccc(CC2(CO)CCCN(Cc3ccc(C)s3)C2)c1 (centres undefined),EC50,[6],0.635 µM (active)
same,EC50,[7],> 30 µM (not active)
C[C@@H](C(=O)Nc1ccc2ccccc2c1)[C@@H]1C[C@@]1(C)[C@@H](NC(=O)c1ccncc1Cl)c1ccccc1,AC50,[2],39.8 µM (inconclusive)
COc1ccccc1CNc1nc(-c2cccc(C#N)c2)nc2ccccc12,AC50,[2],1 µM (inconclusive)
CN1CCN(NC(=O)c2cn(-c3ccccc3)nc2-c2cccc(Br)c2)CC1,EC50,[6],2.81 µM (active)
same,EC50,[7],4.99 µM (active)
CC(=O)OC[C@@H]1O[C@@H](O/N=C2/C[C@@H](O)[C@@H](O)[C@@H]3[C@@H]4C(=O)N(C[C@@H]5CCCO5)C(=O)[C@H]4CC[C@@H]23)[C@H](OC(C)=O)[C@H](OC(C)=O)[C@@H]1OC(C)=O,AC50,[8],3.98 µM (inconclusive)
CC1CC2=C(N=C(S)NC2c2cccc(F)c2)/C(=C/c2cccc(F)c2)C1 (centres undefined),EC50,[6],1.83 µM (active)
same,EC50,[7],> 60 µM (inconclusive)
Cc1ccc(NS(=O)(=O)c2cc3c4c(cccc4c2)C(=O)NC3=O)cc1C,AC50,[5],5.69 µM (active)
C[C@@]12CCC=C[C@H]1[C@H](c1ccc(F)c(/C=C/c3ccccc3)c1)N(Cc1ccccc1)C2=O,AC50,[5],2.84 µM (active)
CCCc1nnc(NC(=O)CCC(=O)NCc2ccccc2OC)s1,AC50,[1]; read-out: AC50,11.2 µM (inconclusive)
O=c1c(-c2cccs2)nc2cnc(N3CCNCC3)nc2n1-c1ccccc1,AC50,[8],20 µM (inconclusive)
same,AC50,[2],20 µM (inconclusive)
CCCCCc1nnc(NC(=O)C(=O)OCC)s1,AC50,[2],28.2 µM (inconclusive)
CCC(=O)Nc1ccc(C(=O)OCC(=O)c2ccc(C)c([N+](=O)[O-])c2)cc1,AC50,[1]; read-out: AC50,11.2 µM (inconclusive)
same,AC50,[8],35.5 µM (inconclusive)
CCc1ccc(-c2cc(C(F)(F)F)n3nc(C(=O)Nc4c(C)nn(Cc5ccccc5C)c4C)cc3n2)s1,EC50,[6],2.21 µM (active)
same,EC50,[7],> 60 µM (inconclusive)
CCOc1ccc(CSC2=NCCN2)cc1Cl,EC50,[6],1.1 µM (active)
same,EC50,[7],> 60 µM (not active)
CCOc1cc(CNCCCN2CCOCC2)ccc1OCC(=O)NC(C)(C)C,EC50,[6],0.87 µM (active)
same,EC50,[7],> 60 µM (not active)
Cn1c(Sc2ccc(-c3cccnc3)n2C)ccc1-c1cccnc1,AC50,[8],3.16 µM (inconclusive)
same,AC50,[2],3.98 µM (inconclusive)
CCOc1ccc(CN2CCN(Cc3cc4ccccc4[nH]3)CC2CCO)cc1 (centres undefined),EC50,[6],0.371 µM (active)
same,EC50,[7],> 60 µM (not active)
Cc1ccc(CCN2CC(C(=O)NC3CCCC3)CC2=O)cc1 (centres undefined),AC50,[1]; read-out: AC50,14.1 µM (inconclusive)
CSc1[nH]c(-c2ccc(C)cc2)nc1S(=O)(=O)c1ccccc1,AC50,[2],11.2 µM (inconclusive)
COc1cccc2c1C(=N)c1c(O)c3c(c(O)c1C2=O)C[C@](O)(C(C)=O)C[C@@H]3O[C@H]1C[C@H](N)[C@@H](O)[C@H](C)O1,AC50,[8],3.16 µM (inconclusive)
COc1cccc(C(=O)Nc2ccc(NC(=O)C3CC=CCC3C(=O)O)cc2)c1 (centres undefined),EC50,[9],> 195 µM (not active)
OCCNc1nc(NCCC2=CCCCC2)nc(N2CCOCC2)n1,AC50,[1]; read-out: AC50,15.8 µM (inconclusive)
CCn1nccc1C(=O)Nc1nc2ccccc2n1CCN1CCCCC1,AC50,[8],4.47 µM (inconclusive)
O[C@@H](c1cc([C@@]23C[C@H]4CC[C@@H]2C[C@H](C4)C3)nc2c(Cl)cc(Cl)cc12)[C@@H]1CCCCN1,AC50,[1]; read-out: AC50,0.794 µM (inconclusive)
same,AC50,[8],3.16 µM (inconclusive)
CN(C)c1ncc2nc(CCc3ccccc3)c(=O)n(CCc3ccccc3)c2n1,AC50,[8],7.94 µM (inconclusive)
O=C(NNc1ccccc1Br)C(=O)n1ccc2ccccc21,AC50,[5],3.46 µM (active)
COc1ccccc1C(=O)Nc1ccnn1C1CCN(Cc2cnc(N(C)C)s2)CC1,EC50,[6],0.852 µM (active)
same,EC50,[7],> 60 µM (not active)
COc1ccc(N2CCN(c3nc(Nc4ccc(C)c(F)c4)nc(N4CCCC4)n3)CC2)cc1,EC50,[6],3.17 µM (active)
same,EC50,[7],> 60 µM (not active)
Cc1noc(C)c1C(=O)N1CCC2(CCN(Cc3cc(C(F)(F)F)cc(C(F)(F)F)c3)CC2)CC1,AC50,[8],39.8 µM (inconclusive)
CC(=O)c1ccc(-c2ccc([C@H]3[C@H]4C=CC[C@@H](C)[C@@H]4C(=O)N3Cc3ccccc3)c(F)c2)cc1,AC50,[5],5.57 µM (active)
N=C(NOC(=O)COc1ccc2ccccc2c1Br)c1ccncc1,EC50,[6],2.84 µM (active)
same,EC50,[7],> 60 µM (not active)
Cn1c(=O)n(Cc2ccc(F)cc2)c(=O)c2c1nc1n2CCCN1C1CCCCC1,AC50,[5],3.33 µM (active)
FC(F)(F)c1ccc(CNCCc2ccc3c(c2)OCO3)cc1,EC50,[6],0.308 µM (active)
same,EC50,[7],> 60 µM (not active)
O=C(CSc1nnc(-c2ccccn2)n1Cc1ccco1)Nc1ccc2c(c1)OCO2,AC50,[2],15.8 µM (inconclusive)
Clc1ccccc1CNCC1CCC(CNCc2ccccc2Cl)CC1 (centres undefined),AC50,[2],1.26 µM (inconclusive)
COc1ccccc1-c1cc(NCc2cccnc2)ncn1,AC50,[8],20 µM (inconclusive)
CCc1nc2c(c(SC)nn2-c2ccccc2)c(N)c1C(=O)OC,AC50,[1]; read-out: AC50,25.1 µM (inconclusive)
same,AC50,[2],1.12 µM (inconclusive)
CC(NC(=O)CN=C(S)N(Cc1ccccc1)Cc1cccnc1)c1ccccc1 (centres undefined),EC50,[6],0.805 µM (active)
same,EC50,[7],10.8 µM (active)
Oc1[nH]c2ccccc2c1N=Nc1ccc(C(F)(F)F)cn1,AC50,[1],inconclusive
O=S(=O)(NCC(c1cccnc1)N1CCN(Cc2ccccc2)CC1)c1cc(F)ccc1F (centres undefined),EC50,[6],0.677 µM (active)
same,EC50,[7],> 60 µM (not active)
Nc1nnc(SCC(=O)OCC(=O)NC2CCCCC2)s1,AC50,[5],> 195 µM (inactive)
CC(C)C12CC[C@@]3(CC[C@H]4[C@@](C)(CCC[C@]4(C)C(=O)O)[C@@H]3C1)[C@@H](CN)C2,AC50,[2],1.26 µM (inconclusive)
COc1ccc(C2NCCc3c2[nH]c2ccccc32)cc1CN1CCc2cc(OC)c(OC)cc2C1C (centres undefined),EC50,[6],1.98 µM (active)
same,EC50,[7],> 60 µM (not active)
COC(=O)c1ccccc1NC(=O)CSc1nnc(C(CO)NC(=O)c2ccccc2)n1C (centres undefined),EC50,[9],> 195 µM (not active)
O=C(CSc1ccc(Cl)cc1)Nc1cccc(NC(=O)c2ccco2)c1,AC50,[2],5.01 µM (inconclusive)
Cc1cccc(Cl)c1OCCCCn1ccnc1,EC50,[6],1.62 µM (active)
same,EC50,[7],> 60 µM (not active)
COc1ccccc1CCn1c(=O)c(-c2cccc(F)c2)nc2cncnc21,AC50,[8],39.8 µM (inconclusive)
COc1cc(-c2ccc3c(=O)c4ccccc4n(C)c3c2)cc(OC)c1OC,AC50,[5],9.62 µM (active)
C[C@@H]1C[C@H](OC(=O)[C@@H](O)c2ccccc2)CC(C)(C)N1C,AC50,[8],15.8 µM (inconclusive)
O=C(CCNS(=O)(=O)c1cccc2nsnc12)NCc1cccs1,EC50,[9],> 195 µM (not active)
Cc1ccnc(NS(=O)(=O)c2ccc(NC(=O)C3CCCNC3=O)cc2)n1 (centres undefined),AC50,[1],inconclusive
Oc1cc(O)c2c(c1)O[C@@H](c1ccc(O)c(O)c1)[C@H](O[C@@]1(c3cc(O)c(O)c(O)c3)Oc3cc(O)cc(O)c3[C@H](O)[C@@H]1O)C2,AC50,[1]; read-out: AC50,3.98 µM (inconclusive)
same,AC50,[2],6.31 µM (inconclusive)
CCOc1cc(/C=C\c2nc(O)nc(O)c2[N+](=O)[O-])ccc1OC(C)CC (centres undefined),AC50,[5],8.11 µM (active)
Cc1noc(C)c1C(=O)N1CCC[C@@]2(CCN(c3ccccn3)C2)C1,AC50,[8],6.31 µM (inconclusive)
Cc1[nH]n(-c2ccccc2)c(=O)c1/C=N/NC(=O)c1ccccc1F,EC50,[3],3.54 µM (active)
same,EC50,[4],6.72 µM (active)
COc1ccc(/C(C)=N/NC(=O)c2ccc(CSc3cccc4cccnc34)cc2)cc1OC,AC50,[2],1.26 µM (inconclusive)
Cc1ccc(-c2csc(N/N=C/c3ccco3)n2)cc1,AC50,[2],20 µM (inconclusive)
COc1ccc(OC)c(/N=C2\SCCCN2C(=O)c2ccc(N3C(=O)CCC3=O)cc2)c1,EC50,[9],> 195 µM (not active)
CC(C)c1c(CN(C)[C@@H](C)Cc2ccccc2)n(C)n(-c2ccccc2)c1=O [FAMPROFAZONE],AC50,[1]; read-out: AC50,15.8 µM (inconclusive)
same,AC50,[8],10 µM (inconclusive)
COc1cc2nc(N3CCN(C(=O)OCc4ccccc4)[C@H](C(=O)NC(C)(C)C)C3)nc(N)c2cc1OC [L-765314],AC50,[8],31.6 µM (inconclusive)
